Experimental data as given in PubChem BioAssay (NCI).
Several values for one entry are separate records, joined by “and”; a condition that tells them apart may be missing. Equal entries are not always repeated.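 Exposure lasted 48 hours, with cells grown in 96-well plates and compounds tested at five concentrations. At the GI50, growth is halved. The concentration for full growth arrest is given as TGI.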

Assays:
Assay in all cases: inhibition of tumour cell growth, NCI panel, 48 h
[1] = tested on: ACHN renal
[2] = tested on: SF-295 CNS
[3] = tested on: RXF 393 renal
[4] = tested on: NCI-H23 lung
[5] = tested on: DLD-1 colon
[6] = tested on: BT-549 breast
[7] = tested on: HCT-116 colon
[8] = tested on: OVCAR-8 ovarian
[9] = tested on: DMS 114 small cell lung
[10] = tested on: RPMI-8226 leukemia
[11] = tested on: XF 498 CNS
[12] = tested on: SK-MEL-28 melanoma
[13] = tested on: MOLT-4 leukemia
[14] = tested on: EKVX NSCLC
[15] = tested on: OVCAR-5 ovarian
[16] = tested on: SW-620 colon
[17] = tested on: UACC-62 melanoma
[18] = tested on: HS 578T breast
[19] = tested on: A549 NSCLC
[20] = tested on: A498 renal
[21] = tested on: SNB-75 CNS
[22] = tested on: SF-268 CNS
[23] = tested on: HL-60(TB) leukemia
[24] = tested on: LXFL 529 NSCLC
[25] = tested on: HOP-62 NSCLC
[26] = tested on: SR leukemia
[27] = tested on: NCI-H226 lung
[28] = tested on: OVCAR-4 ovarian
[29] = tested on: NCI-H460 lung
[30] = tested on: OVCAR-3 ovarian
[31] = tested on: SN12C renal
[32] = tested on: NCI/ADR-RES ovarian
[33] = tested on: DU-145 prostate
[34] = tested on: SK-MEL-2 melanoma
[35] = tested on: LOX IMVI melanoma
[36] = tested on: T-47D breast
[37] = tested on: MALME-3M melanoma
[38] = tested on: K-562 leukemia
[39] = tested on: MDA-MB-231 breast
[40] = tested on: SK-OV-3 ovarian
[41] = tested on: IGROV1 ovarian
[42] = tested on: DMS 273 small cell lung
[43] = tested on: HOP-92 NSCLC
[44] = tested on: TK-10 renal
[45] = tested on: SF-539 CNS
[46] = tested on: UACC-257 melanoma
[47] = tested on: HCC-2998 colon
[48] = tested on: PC-3 prostate
[49] = tested on: COLO 205 colon
[50] = tested on: HCT-15 colon
[51] = tested on: U251 CNS
[52] = tested on: 786-0 renal
[53] = tested on: MDA-N
[54] = tested on: M14 melanoma
[55] = tested on: CCRF-CEM leukemia
[56] = tested on: MDA-MB-435
[57] = tested on: SK-MEL-5 melanoma
[58] = tested on: KM20L2 colon
[59] = tested on: HT29 colon
[60] = tested on: UO-31 renal
[61] = tested on: MCF7 breast
[62] = tested on: SNB-19 CNS
[63] = tested on: NCI-H522 lung
[64] = tested on: HOP-18 NSCLC
[65] = tested on: SNB-78 CNS
[66] = tested on: M19-MEL melanoma
[67] = tested on: KM12 colon
[68] = tested on: CAKI-1 renal

With `CC(C)(C)c1cc(C=C(C#N)C#N)cc(C(C)(C)C)c1O` the TGI [1] was 20.2 µM, the GI50 [2] was 0.284 µM and the TGI [2] was 1.23 µM and 3.4 µM. For the same compound, the GI50 [3] was 0.482 µM, the TGI [3] was 14.3 µM and 10.5 µM and the GI50 [4] was 0.194 µM. For the same compound, the TGI [5] was 42.7 µM, the GI50 [6] was 0.141 µM and the TGI [6] was 0.875 µM and 6.78 µM. The TGI [7] was 1.03 µM and 3.81 µM, the GI50 [8] was 0.355 µM and the TGI [8] was 23.6 µM and 48.1 µM. For the same compound, the TGI [9] was 7.3 µM, the GI50 [10] was 0.101 µM and 0.0877 µM and the TGI [11] was 3.13 µM. It also gave a GI50 [12] of 0.778 µM, a TGI [12] of 43.6 µM and a TGI [13] of 10.6 µM. The GI50 [14] was 0.518 µM and 0.825 µM, the TGI [14] was 46.3 µM and the GI50 [15] was 0.402 µM. The GI50 [16] was 0.462 µM, the TGI [16] was 30.9 µM and 45.4 µM and the TGI [17] was 8.29 µM and 19.3 µM. For the same compound, the GI50 [18] was 0.133 µM, the TGI [18] was 22.7 µM and 4.49 µM and the TGI [19] was 24.3 µM and 71.4 µM. For the same compound, the GI50 [20] was 0.158 µM, the TGI [20] was 3.83 µM and 1.76 µM and the GI50 [21] was 0.194 µM. The GI50 [22] was 0.475 µM, the TGI [22] was > 241 µM and the TGI [23] was 2.48 µM. The TGI [24] was 6.59 µM, the TGI [25] was 6.87 µM and 1.65 µM and the GI50 [26] was 0.318 µM. For the same compound, the TGI [26] was 12.6 µM and 11 µM, the GI50 [27] was 0.371 µM and the TGI [27] was 1.51 µM and 14.8 µM. The GI50 [28] was 0.523 µM, the TGI [28] was > 354 µM and the GI50 [29] was 0.305 µM. For the same compound, the TGI [29] was 21.9 µM, the GI50 [30] was 0.456 µM and the TGI [30] was 29.2 µM and 3.85 µM. It also gave a GI50 [31] of 0.513 µM, a TGI [31] of 4.6 µM and a GI50 [32] of 0.0629 µM. The TGI [32] was 15.1 µM and 41.5 µM, the GI50 [33] was 0.0894 µM and the TGI [33] was 18.5 µM and 56.8 µM. For the same compound, the TGI [34] was 1.39 µM, the GI50 [35] was 0.375 µM and the TGI [35] was 3.92 µM and 10.8 µM. The GI50 [36] was 0.0679 µM, the TGI [36] was 0.645 µM and 5.07 µM and the GI50 [37] was 0.507 µM. The TGI [37] was 15.4 µM and 8.08 µM, the TGI [38] was > 354 µM and the GI50 [39] was 0.0923 µM. The TGI [39] was 0.675 µM, the GI50 [40] was 0.229 µM and 0.302 µM and the GI50 [41] was 0.493 µM. The TGI [41] was > 247 µM, the TGI [42] was 5.51 µM and the GI50 [43] was 0.212 µM. For the same compound, the TGI [43] was 0.768 µM and 0.139 µM, the GI50 [44] was 0.336 µM and the GI50 [45] was 0.376 µM. The TGI [45] was 10.2 µM and 3.24 µM, the TGI [46] was 0.898 µM and 3.27 µM and the TGI [47] was 18.4 µM. For the same compound, the GI50 [48] was 0.0354 µM, the TGI [48] was 3.36 µM and 4.17 µM and the GI50 [49] was 0.363 µM and 0.191 µM. For the same compound, the TGI [49] was 0.369 µM, the TGI [50] was 14.1 µM and 19.9 µM and the GI50 [51] was 0.359 µM. The TGI [51] was 23.1 µM and 11.5 µM, the GI50 [52] was 0.393 µM and the TGI [52] was 10.9 µM and 16.4 µM. The GI50 [53] was 0.346 µM, the TGI [53] was 56.7 µM and the GI50 [54] was 0.533 µM. The TGI [54] was 12.1 µM and 10.7 µM, the GI50 [55] was 0.609 µM and the GI50 [56] was 0.252 µM. For the same compound, the TGI [56] was 29.9 µM and 12.4 µM, the GI50 [57] was 0.298 µM and the TGI [57] was 3.07 µM. The TGI [58] was 73.2 µM, the GI50 [59] was 0.33 µM and the TGI [59] was 7.81 µM and 10.6 µM. For the same compound, the TGI [60] was 0.891 µM and 3.7 µM, the TGI [61] was 41 µM and the GI50 [62] was 0.271 µM. For the same compound, the TGI [62] was 115 µM, the GI50 [63] was 0.219 µM and the TGI [63] was 2.86 µM and 1.61 µM.

Compound `CC(=O)OCc1c(O)c2c(c(O)c1COC(C)=O)C(=O)C=CC2=O` has a TGI [1] of 21.8 µM, a TGI [2] of 27.4 µM and a TGI [4] of 29 µM. The TGI [7] was 25.6 µM, the TGI [8] was 30.2 µM and the TGI [9] was 25.4 µM. For the same compound, the TGI [10] was > 100 µM, the TGI [12] was 22.8 µM and the TGI [13] was 15.1 µM. The TGI [14] was 32 µM, the TGI [15] was 30.9 µM and the TGI [16] was 14.3 µM. For the same compound, the TGI [17] was 19.3 µM, the TGI [64] was 35.8 µM and the TGI [19] was 35.9 µM. It also gave a TGI [20] of 34.7 µM, a TGI [21] of 33.2 µM and a TGI [22] of 30.8 µM. It also gave a TGI [23] of 46.7 µM, a TGI [24] of 10.4 µM and a TGI [25] of 37.4 µM. The TGI [26] was > 100 µM, the TGI [27] was 32.5 µM and the TGI [28] was 22.7 µM. It also gave a TGI [65] of 28 µM, a TGI [30] of 22.1 µM and a TGI [31] of 24.2 µM. For the same compound, the TGI [66] was 3.54 µM, the TGI [67] was 28.2 µM and the TGI [34] was 8.84 µM. For the same compound, the TGI [37] was 20.5 µM, the TGI [38] was > 100 µM and the TGI [40] was 33.4 µM. For the same compound, the TGI [41] was 30.5 µM, the TGI [42] was 34.3 µM and the TGI [43] was 7.24 µM. The TGI [44] was 30 µM, the TGI [45] was 35.7 µM and the TGI [46] was 20.1 µM. For the same compound, the TGI [47] was 31.3 µM, the TGI [68] was 21.8 µM and the TGI [49] was 10.5 µM. It also gave a TGI [50] of 38.1 µM, a TGI [51] of 28.5 µM and a TGI [54] of 23.7 µM. The TGI [55] was 13.7 µM, the TGI [57] was 28.5 µM and the TGI [58] was 32.7 µM. For the same compound, the TGI [59] was 31.6 µM and the TGI [60] was 29 µM.

`Cn1c2c(c3ccccc31)CCN(CCN1CCN(c3cccc(Cl)c3)CC1)C2=O` was tested, and the TGI [1] was > 100 µM, the TGI [3] was > 100 µM and the TGI [4] was > 100 µM. For the same compound, the TGI [5] was > 100 µM, the TGI [7] was > 100 µM and the TGI [8] was > 100 µM. For the same compound, the TGI [9] was > 100 µM, the TGI [10] was > 100 µM and the TGI [11] was 34.5 µM. The TGI [12] was > 100 µM, the TGI [13] was > 100 µM and the TGI [14] was > 100 µM. For the same compound, the TGI [16] was > 100 µM, the TGI [17] was > 100 µM and the TGI [64] was > 100 µM. The TGI [19] was > 100 µM, the TGI [20] was > 100 µM and the TGI [22] was > 100 µM. For the same compound, the TGI [23] was 65.3 µM, the TGI [24] was > 100 µM and the TGI [25] was > 100 µM. The TGI [31] was > 100 µM, the TGI [66] was > 100 µM and the TGI [35] was > 100 µM. The TGI [38] was > 100 µM, the TGI [40] was > 100 µM and the TGI [41] was > 100 µM. For the same compound, the TGI [42] was > 100 µM, the TGI [43] was 77.1 µM and the TGI [44] was > 100 µM. The TGI [45] was > 100 µM, the TGI [49] was > 100 µM and the TGI [50] was > 100 µM. The TGI [51] was > 100 µM, the TGI [52] was > 100 µM and the TGI [54] was > 100 µM. The TGI [55] was > 100 µM, the TGI [57] was 62.6 µM and the TGI [58] was > 100 µM. For the same compound, the TGI [59] was 41 µM, the TGI [60] was > 100 µM and the TGI [63] was > 100 µM.
